{
  "source": "patent US20200278355A1",
  "about": "“CONJUGATED PROTEINS AND USES THEREOF” (THE SCRIPPS RESEARCH INSTITUTE, priority 2017, published 2020)",
  "target": "T1, TXN2 (Homo sapiens, UniProt Q99757)",
  "T1 construct": "H460 cells or H460 cells expressing luciferase in a 10 cm plate were incubated with indicated compounds; endogenous in cells; host or cells: H460",
  "T1 sequence (Q99757 60-166)": "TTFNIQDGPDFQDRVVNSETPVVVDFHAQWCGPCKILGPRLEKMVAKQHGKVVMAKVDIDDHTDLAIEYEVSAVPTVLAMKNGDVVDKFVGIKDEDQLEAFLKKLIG",
  "experiment": "isoTOP-ABPP of compound-treated H460 cells: TXN2",
  "type": "cell-based",
  "settings": "TXN2 C90; 40 μM",
  "method": "For analysis of NR0B1 ligands or control compound reactivity, H460 cells or H460 cells expressing luciferase in a 10 cm plate were incubated with indicated compounds in serum/dye-free RPMI for 3 hours at 37° C. Cells were washed once ice-cold PBS and lysed in 1% Triton X-100 dissolved in PBS with protease inhibitors (Sigma) by sonication. Samples were clarified by centrifugation for 10 min at 16,000×g. Lysate was adjusted to 1.5 mg ml^−1 in 500 μL.\nSamples were labeled for 1 h at ambient temperature with 100 μM iodoacetamide alkyne (1, IA-alkyne, 5 μL of 10 mM stock in DMSO). Samples were conjugated by copper-catalyzed azide-alkyne cycloaddition (CuAAC) to isotopically labeled, TEV-cleavable tags (TEV-tags). Heavy CuAAC reaction mixtures was added to the DMSO-treated or shGFP control samples and light CuAAC reaction mixture was added to compound-treated or shNRF2 samples. The CuAAC reaction mixture consisted of TEV tags (light or heavy, 10 μL of 5 mM stocks in DMSO, final concentration=100 μM), 1 mM tris(2-carboxyethyl)phosphine hydrochloride (TCEP; fresh 50× stock in water, final concentration=1 mM), ligand (17× stock in DMSO:t-butanol 1:4, final concentration=100 μM) and 1 mM CuSO4 (50× stock in water, final concentration=1 mM). The samples were allowed to react for 1 h at which point the samples were centrifuged (16,000×g, 5 min, 4° C.). […]",
  "data": [
    {"smiles": "O=C(c1ccc(N2CCOCC2)cc1)N1CCCC(N(Cc2ccccc2)C(=O)CCl)CC1", "note": "(stereo not shown) [BPK-29, N-benzyl-2-chloro-N-(1-(4-morpholinobenzoyl)azepan-4-yl)acetamide]", "values": [
      {"measurement": "BPK-29-competed isoTOP-ABPP analysis", "value": "Yes (Competed defined as showing R value ≥ 3.0 at 40 μM of test compound)"}
    ]}
  ]
}
